Assay results taken from patent publication US12162858B2, “Quinoline derivatives as inhibitors of AXL/MER RTK and CSF1R” (QURIENT CO., LTD., priority 2018, dated 2024).

Columns and labels:
CSF1R (M-NFS-60 cells) = test: Cell Titer-Glo viability assay using M-NFS-60 cells; assay type: cell-based; conditions: Mus musculus, read-out: Cellular CSF1R activity by M-NFS-60 viability assay (IC50 activity range)
Procedure, shortened: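 M-NFS-60 cells grown with 62 ng/ml recombinant human M-CSF, seeded at 2×10^5 cells/well and incubated at 37 °C/5% CO2. Compounds given as 3-fold serial dilutions (10 doses); viability read by CellTiter-Glo luminescence, sigmoidal dose-response fit.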

Mer = molecular target: T1, Mer (Homo sapiens, UniProt Q12866); test: LanthaScreen Eu kinase binding assay for Mer; conditions: read-out: Mer kinase binding activity (Kd)
T1 construct: purchased Life Technologies
T1 sequence (Q12866 21-999): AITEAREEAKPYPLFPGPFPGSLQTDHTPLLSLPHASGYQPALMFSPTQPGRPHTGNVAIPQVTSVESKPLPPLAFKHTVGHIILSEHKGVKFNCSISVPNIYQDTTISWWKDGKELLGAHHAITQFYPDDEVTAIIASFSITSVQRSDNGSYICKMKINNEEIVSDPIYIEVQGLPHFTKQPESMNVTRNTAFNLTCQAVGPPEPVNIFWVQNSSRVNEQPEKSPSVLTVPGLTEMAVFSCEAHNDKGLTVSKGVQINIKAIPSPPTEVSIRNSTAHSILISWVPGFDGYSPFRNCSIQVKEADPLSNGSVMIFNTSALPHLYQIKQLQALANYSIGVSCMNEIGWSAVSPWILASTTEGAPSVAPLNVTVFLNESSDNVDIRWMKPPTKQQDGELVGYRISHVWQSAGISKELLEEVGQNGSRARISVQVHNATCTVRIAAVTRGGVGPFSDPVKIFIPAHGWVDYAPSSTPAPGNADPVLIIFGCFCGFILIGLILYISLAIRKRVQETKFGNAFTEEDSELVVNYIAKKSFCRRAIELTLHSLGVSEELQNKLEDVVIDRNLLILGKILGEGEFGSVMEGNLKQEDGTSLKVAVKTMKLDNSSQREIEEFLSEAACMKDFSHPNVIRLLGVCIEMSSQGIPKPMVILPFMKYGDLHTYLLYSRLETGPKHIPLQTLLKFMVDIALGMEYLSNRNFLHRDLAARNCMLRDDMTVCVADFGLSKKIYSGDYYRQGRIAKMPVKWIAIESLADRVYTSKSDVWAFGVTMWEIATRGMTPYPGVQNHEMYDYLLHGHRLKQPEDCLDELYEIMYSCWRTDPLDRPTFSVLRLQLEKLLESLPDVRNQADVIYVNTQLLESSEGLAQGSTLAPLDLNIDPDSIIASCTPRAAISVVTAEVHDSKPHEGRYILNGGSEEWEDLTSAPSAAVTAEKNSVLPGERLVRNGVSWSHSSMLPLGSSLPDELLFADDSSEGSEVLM
Procedure, shortened: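 Kd values come from control-normalized FRET loss, referenced to DMSO vehicle wells, after 1 h at room temperature. Each compound was serially diluted over eight steps in DMSO and competed against Tracer 236 (Alexa Fluor 647) for the kinase, which was tagged by a Eu anti-GST antibody.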

Row | Compound | Kd (Mer) [nM] | IC50 (CSF1R (M-NFS-60 cells)) [nM]
1 | COc1cc2nccc(Oc3ccc(NC(=O)c4nn(CC5CCNC5)cc4OCC(F)(F)F)nc3)c2cc1OC (centres unmarked) [Compound 72] | < 100 | 1000 to 10000
2 | COc1cc2nccc(Oc3ccc(NC(=O)c4nn(CC5CNC5)cc4OCC(F)(F)F)nc3)c2cc1OC [Compound 73] | 100 to 500 | 1000 to 10000
3 | COc1cc2nccc(Oc3ccc(NC(=O)c4nn(C5CCNC5)cc4OCC(F)(F)F)c(F)c3)c2cc1OC (centres unmarked) [Compound 74] | 100 to 500 | 1000 to 10000
4 | COc1cc2nccc(Oc3ccc(NC(=O)c4nn(CCN)cc4OCC(F)(F)F)c(F)c3)c2cc1OC [Compound 75] | 100 to 500 | 1000 to 10000
5 | COc1cc2nccc(Oc3ccc(NC(=O)c4nn(CC(C)O)cc4OCC(F)(F)F)c(F)c3)c2cc1OC (centres unmarked) [Compound 76] | < 100 | 1000 to 10000
6 | COc1cc2nccc(Oc3ccc(NC(=O)c4nn(CCC(F)(F)F)cc4OCC4CCC4)nc3)c2cc1OC [Compound 166] | < 100 | 1000 to 10000
7 | CCCn1cc(OCC2CCC2)c(C(=O)Nc2ccc(Oc3ccnc4cc(OC)c(OC(F)(F)F)cc34)cn2)n1 [Compound 167] | < 100 | 1000 to 10000
8 | COc1cc2nccc(Oc3ccc(NC(=O)c4nn(CCNC5CC5)cc4OCC(F)(F)F)nc3)c2cc1OC [Compound 168] | < 100 | < 1000
9 | COc1cc2nccc(Oc3ccc(NC(=O)c4nn(CC5CCN(C)C5)cc4OCC(F)(F)F)nc3)c2cc1OC (centres unmarked) [Compound 169] | < 100 | < 1000
10 | COc1cc2nccc(Oc3ccc(NC(=O)c4nn(C5CC5)cc4OCCC(F)(F)F)nc3)c2cc1OC [Compound 170] | < 100 | < 1000
11 | COCCOc1cn(C2CC2)nc1C(=O)Nc1ccc(Oc2ccnc3cc(OC)c(OC)cc23)nn1 [Compound 171] | 100 to 500 | ≥ 10000
12 | COc1cc2nccc(Oc3ccc(NC(=O)c4nn(C5CC5)cc4OCC4CNC4)nn3)c2cc1OC [Compound 172] | ≥ 500 | ≥ 10000
13 | COc1cc2nccc(Oc3ccc(NC(=O)c4nn(C5CC5)cc4OCCC(F)(F)F)nn3)c2cc1OC [Compound 173] | < 100 | 1000 to 10000
14 | COc1cc2nccc(Oc3ccc(NC(=O)c4nn(CC(C)O)cc4OCC4CN(C)C4)nc3)c2cc1OC (centres unmarked) [Compound 174] | ≥ 500 | ≥ 10000
15 | COc1cc2nccc(Oc3ccc(NC(=O)c4nn(CC(C)O)cc4OCC(F)F)nc3)c2cc1OC (centres unmarked) [Compound 175] | < 100 | < 1000
16 | COc1cc2nccc(Oc3ccc(NC(=O)c4nc(CCC(F)(F)F)oc4CCC4CCC4)nc3)c2cc1OC [Compound 176] | 100 to 500 | 1000 to 10000
17 | CCCn1cc(OCCN(C)C)c(C(=O)Nc2ccc(Oc3ccnc4cc(OC)c(OC)cc34)cn2)n1 [Compound 177] | 100 to 500 | 1000 to 10000
18 | COc1cc2nccc(Oc3ccc(NC(=O)c4cc(C5CC5)cnc4OCC(F)(F)F)nc3)c2cc1OC [Compound 178] | < 100 | < 1000
19 | COc1cc2nccc(Oc3ccc(NC(=O)c4sc(C5CC5)cc4OCC(F)(F)F)nc3)c2cc1OC [Compound 179] | 100 to 500 | < 1000

Now from value to compound, other results behind:

Row | Kd (Mer) [nM] | Compound | IC50 (CSF1R (M-NFS-60 cells)) [nM]
20 | < 100 | COCCn1cc(OCC(F)(F)F)c(C(=O)Nc2ccc(Oc3ccnc4cc(OC)c(OC)cc34)c(F)c2)n1 [Compound 54] | < 1000
21 | < 100 | COc1cc2nccc(Oc3ccc(NC(=O)c4nn(C5CCOC5)cc4OCC(F)(F)F)cc3F)c2cc1OC (centres unmarked) [Compound 55] | 1000 to 10000
22 | < 100 | COc1cc2nccc(Oc3ccc(NC(=O)c4nn(CCO)cc4OCC(F)(F)F)cc3C)c2cc1OC [Compound 56] | < 1000
23 | < 100 | COc1cc2nccc(Oc3ccc(NC(=O)c4nn(C5CCCC5)cc4OCC(F)(F)F)cc3C)c2cc1OC [Compound 57] | < 1000
24 | < 100 | COc1cc2nccc(Oc3ccc(NC(=O)c4nn(CC(C)C)cc4OCC(F)(F)F)cc3C)c2cc1OC [Compound 58] | 1000 to 10000
25 | < 100 | COc1cc2nccc(Oc3ccc(NC(=O)c4nn(CCO)cc4OCC(F)(F)F)cc3)c2cc1OC [Compound 59] | < 1000
26 | < 100 | COc1cc2nccc(Oc3ccc(NC(=O)c4nn(C5CCCC5)cc4OCC(F)(F)F)cc3)c2cc1OC [Compound 60] | 1000 to 10000
27 | < 100 | COCCn1cc(OCC(F)(F)F)c(C(=O)Nc2ccc(Oc3ccnc4cc(OC)c(OC)cc34)cc2)n1 [Compound 61] | 1000 to 10000
28 | < 100 | COc1cc2nccc(Oc3ccc(NC(=O)c4nn(C5CCOC5)cc4OCC(F)(F)F)cc3)c2cc1OC (centres unmarked) [Compound 62] | 1000 to 10000
29 | < 100 | COc1cc2nccc(Oc3ccc(NC(=O)c4nn(CC(C)N)cc4OCC(F)(F)F)nc3)c2cc1OC (centres unmarked) [Compound 63] | 1000 to 10000
30 | < 100 | COc1cc2nccc(Oc3ccc(NC(=O)c4nn(CC(C)(F)F)cc4OCC(F)(F)F)nc3)c2cc1OC [Compound 64] | 1000 to 10000
31 | < 100 | COc1cc2nccc(Oc3ccc(NC(=O)c4nn(CCOC5CCC5)cc4OCC(F)(F)F)nc3)c2cc1OC [Compound 65] | 1000 to 10000
32 | < 100 | COc1cc2nccc(Oc3ccc(NC(=O)c4nn(C5COC5)cc4OCC(F)(F)F)nc3)c2cc1OC [Compound 66] | 1000 to 10000
33 | < 100 | COc1cc2nccc(Oc3ccc(NC(=O)c4nn(CCO)cc4OCC(F)(F)F)nc3)c2cc1OC [Compound 67] | 1000 to 10000
34 | < 100 | COc1cc2nccc(Oc3ccc(NC(=O)c4nn(CCCN)cc4OCC(F)(F)F)nc3)c2cc1OC [Compound 68] | 1000 to 10000
35 | < 100 | COc1cc2nccc(Oc3ccc(NC(=O)c4nn(C5CCCCC5)cc4OCC(F)(F)F)nc3)c2cc1OC [Compound 69] | 1000 to 10000
36 | < 100 | COc1cc2nccc(Oc3ccc(NC(=O)c4nn(C5CCNC5)cc4OCC(F)(F)F)nc3)c2cc1OC (centres unmarked) [Compound 70] | 1000 to 10000
37 | < 100 | COc1cc2nccc(Oc3ccc(NC(=O)c4nn(CC5CCCC5)cc4OCC(F)(F)F)nc3)c2cc1OC [Compound 71] | 1000 to 10000
